For one series, the system named is K562/A02 cells. Also noted: method as in PMID 29453043. To be noted: cited from earlier work.
Series [1] has as its system K562/DOX cells. The series can be described thus: Drug efflux study (DOX retained, flow cytometry), K562/DOX cells. To be noted: 10 μg/mL DOX loaded 4 h at 37 °C, then free medium. Type of series: cell-based. As to the method: In order to determine DOX efflux, K562 and K562/DOX cells were seeded and incubated in 12-well plates (1 × 10^5 cells/well). Different DOX formulations diluted with fresh medium to a concentration of 10 μg/mL were incubated with K562 and K562/DOX cells for 4 h at 37 °C. Subsequently, the cells were washed three times with ice-cold PBS, and then incubated with free medium at another 0.5, 1, 2, and 4 h. Ice-cold PBS was used to wash the cells at the end of each incubation time. The amounts of DOX retained in cells were determined by flow cytometry. The investigation was carried out in triplicate.

The subject of series [2] is K562/DOX cells. Kind of series: MTT assay of combinatorial effects of MTO and βE in different mass ratios. Type of series: cell-based. To be noted: Homo sapiens, 48 h of incubation. As to the method: The combinatorial effects of MTO and βE in different ratios (w/w) were assessed against K562/DOX through MTT assay. With a density of 5 × 10^3 cells/well, K562/DOX cells were seeded in 96-well plates and incubated for 48 h, then treated with different concentrations of MTO dissolved in the free medium of RPMI-1640, βE dissolved in the mixture of (RPMI-1640 and 0.5% DMSO), and different combination mass ratios of MTO/βE (10:1, 5:1, 2:1, 1:1, 1:2, 1:5, and 1:10 w/w). After 48 h of incubation, cells were washed twice with cold PBS, and then incubated again for 4 h with 20 µL of MTT solution (5 mg/mL) added to each well. In order to solubilize the formazan crystals, 150 μL of DMSO per well was added to replace the medium. Finally, a Microplate Reader (Biotech, Winooski, VT, USA) was used to measure the UV absorbance intensity at 570 nm. Each measurement was performed in triplicate. The cell viability percentage was evaluated using the following equation: Cell Viability (%)=ODsample /ODcontrol×100% where ODSample stands for the optical density (absorbance intensity) of the cells treated with MTO, βE, or MTO in combination with βE, while ODControl is the absorbance intensity of the untreated cells. […] The synergistic effect of different combinations of MTO and βE was assessed through the calculation of combination index (CI) using the equation of Chou and Talalay. […]
For orientation: Tetrazolium dyes change colour on reduction, which living cells bring about.

Another series deals with K562 cells. Kind of series: MTT cytotoxicity of MTO formulations in K562 cells. It is filed as cell-based. To be noted: n = 3; for IC50: Homo sapiens, K562, 48 h. Here is the method: (§1) A cytotoxicity study of MTO, MTO/βE, MTO-SLNs, and MTO/βE-SLNs was also carried out by MTT assay in both K562 and K562/DOX cells lines. K562 cells and K562/DOX cells were seeded in a 96-well plate at a density of 5 × 10^3 cells/well and incubated for 48 h. Then, the cells were treated with MTO, MTO/βE, MTO-SLNs, and MTO/βE-SLNs at different doses (total amount of MTO in SLNs: 0.01, 0.1, 1, 2.5, 5, and 10 μg/mL in K562 cells and 0.1, 1, 10, 20, 40, and 80 μg/mL in K562/DOX cells for 48 h. After 48 h of incubation, cells were washed twice with cold PBS then incubated again for 4 h with 20 µL of MTT solution (5 mg/mL) added to each well. In order to solubilize the formazan crystals, 150 μL of DMSO per well was added to replace the medium. Finally, a Microplate Reader (Biotech) was used to measure the UV absorbance intensity at 570 nm. Each measurement was performed in triplicate. The cell viability percentage was evaluated using the following equation [4, 10]: Cell Viability (%)=ODsample /ODcontrol×100% where ODsample stands for the absorbance intensity of the cells treated with MTO, MTO/βE, MTO-SLNs, and MTO/βE-SLNs, while ODControl is the absorbance intensity of the untreated cells. The 50% inhibition concentrations (IC50) of different agents were calculated by Graph Pad Prism 5.0 software. All experiments were in triplicate and the results were given as means ± SD.
(§2) The different effects of drug formulations on K562/DOX were evaluated in the MDR reversal capacities through the index of drug resistance (IDR) and index of reversal of drug resistance (IRDR). IDR and IRDR were calculated as follows: IDR=IC50of other formulation against K562/DOX cells/IC50of MTO against K562 CellsIRDR=IC50of MTO against K562 cells /IC50of other formulation against K562/DOX cells

For series [3], the system named is K562/DOX cells. Kind of series: MTT cytotoxicity of MTO formulations in K562/DOX cells. To be noted: for IC50: Homo sapiens, K562/DOX cells, n = 3. Type of series: cell-based. Here is the method: as §1, §2
Series [4] can be described thus: Pharmacokinetics after intravenous administration. It is filed as in vivo, SD rats. To be noted: rats; for AUC(0-t) / Cmax / half-life: male, Sprague-Dawley (SD), rat, plasma; for time post injection after which no drug was observed in plasma: free drug. As to the method: All the preparations were administered intravenously into the tail vein at a dose of 2 mg/kg (n = 6) for MTO and 4 mg/kg (n = 6) for βE. The blood samples were taken with a heparinized syringe at 0.5, 1, 2, 4, 6, 8, 12, and 24 h.

Series [5] concerns K562/DOX xenografts tumors. The series can be described thus: In vivo antitumor activity in K562/DOX xenograft tumor model. Also noted: species or system BALB/c nude mice. Conditions: during treatment, compared with saline. Here is the method: Mice bearing K562/DOX xenografts tumors were used to evaluate different MTO formulations through an in vivo antitumor efficacy study. K562/DOX cells at a concentration of 1 × 10^7 cells/mice with a volume of 200 μL were injected into the left axilla of BALB/c nude mice. After inoculation of cells, the growth of tumor was observed every two days by measuring the diameter of tumor with Vernier caliper. The tumor volume was calculated as (L × W^2)/2, where L and W are the tumor length and width, respectively. The anti-tumor evaluation was started when tumor volume reached about 100 mm^3, and this day was designated as day 0. Mice were randomly divided in five groups of six: Saline, MTO, MTO/βE, MTO-SLNs, and MTO/βE-SLNs (MTO dosage: 2 mg/kg and βE dosage: 4 mg/kg). The injections were carried out on days 0, 3, 6, 9, and 12 via the tail vein. In order to evaluate the treatment efficacy and safety, mice were sacrificed, and then tumors, heart, lung, liver, kidney, and spleen were dissected and fixed in 4% paraformaldehyde. In order to observe the pathological changes in different tissues, samples were cut and stained with hematoxylin and eosin (H&E) for histological analyses. An optical microscope (Leica DMI6000 B, Wetzlar, Germany) was used to take different photos. […]

Series [6] concerns K562/DOX cells. Kind of series: Intracellular ATP production assay. Type of series: cell-based. Conditions: 8 h at 37 °C. Here is the method: An ATP assay kit was used to measure the intracellular ATP. K562/DOX cells at a density of 1 × 10^5 cells/well were seeded and cultured in 12-well plates and incubated for 24 h. The cells were then incubated with fresh medium containing MTO, MTO/βE, MTO-SLNs, and MTO/βE-SLNs for 8 h at 37 °C. The cell ATP content was determined based on the manufacturer’s protocol. Briefly, the cells were collected and lysed by 200 μL of lysis solution to obtain the cell lysate, followed by centrifugation at 12,000× g for 5 min at 4 °C. Next, 20 μL of the supernatant of each sample was mixed with 100 μL of ATP testing solution in a black 96-well plate, and kept for 10 min. A microplate luminometer (Luminoskan, Thermo Scientific, Waltham, MA, USA) was used to measure the luminescence intensity. The raw data were converted to ATP concentrations using the standard ATP calibration.

Data on four compounds can be found in paper PMC7076650, “Co-Encapsulation of Mitoxantrone and β-Elemene in Solid Lipid Nanoparticles to Overcome Multidrug Resistance in Leukemia” (Pharmaceutics, 2020).

Values after ≈ are worked out from the molar mass of the structure shown. Read-outs that look alike come from different tables or passages of the source.

One may read the IC50 as the concentration that gives 50% inhibition. Usually Cmax stands for the peak of the concentration-time curve.

As for ethyl lucidenates-A, in the series with K562/A02 cells, the “reversal of resistance of K562/A02 cells to vincristine” value is reported as 7.59 fold.

With `COc1cccc2c1C(=O)c1c(O)c3c(c(O)c1C2=O)C[C@@](O)(C(=O)CO)C[C@@H]3O[C@H]1C[C@H](N)[C@H](O)[C@H](C)O1` [DOX, doxorubicin], in the series on K562/DOX cells [1], the “DOX that underwent efflux” value is recorded as “about 90%”.

For the compound `Cl.Cl.O=C1c2c(O)ccc(O)c2C(=O)c2c(NCCNCCO)ccc(NCCNCCO)c21` [MTO, 1,4-dihydroxy-5,8-bis[[2-[(2-hydroxyethyl)amino]ethyl]amino] anthraquinone dihydrochloride], the IC50 is 48.2 µg/mL in the series on K562/DOX cells [2] (n = 3, concentration of MTO alone or in the combination, read-out: IC50 MTO); 5.02 µg/mL with K562 cells; 48.2 µg/mL with K562/DOX cells [3] (48 h). The “IC50 K562” value with K562 cells (48 h) is 5.025 µg/mL. Also, the “cell survival rate of K562/DOX cells” value with K562/DOX cells [3] (concentration of MTO 10 μg/mL, 48 h) is 81.43%. Also, in the series on K562/DOX cells [3] (concentration of MTO 80 μg/mL, 48 h), the “survival ratio in K562/DOX cells” value is given as 24.06%. In the series on K562/DOX cells [3] (from IC50 in K562/DOX and K562 cells), the “IDR (index of drug resistance)” value is recorded as 9.59. In series [4] (2 mg/kg MTO, n = 6, read-out: AUC0–24 of MTO), the AUC(0-t) came to 1180 ± 150 ng·h/mL. Moreover, in series [4] (2 mg/kg MTO, n = 6, read-out: Cmax of MTO), the Cmax was found to be 3450 ± 580 ng/mL. Moreover, in series [4] (2 mg/kg MTO, n = 6, read-out: T1/2 of MTO (converted)), the half-life was 1.53 ± 0.33 h. Also, the “time post injection after which no drug was observed in plasma” value in series [4] was found to be 6 h. The “body weight of mice” value in series [5] is on record as “decreased remarkably”.

As to `C=CC1(C)CCC(C(=C)C)CC1C(=C)C` (stereo not shown) [βE, 1-methyl-1-vinyl-2,4-diisopropenyl-cyclohexane], the IC50 is 140 µg/mL with K562/DOX cells [2] (n = 3, concentration of βE alone or in the combination, read-out: IC50 βE); 122 µg/mL (≈ 598 µM) in the series with K562 cells; 140 µg/mL (≈ 687 µM) with K562/DOX cells [3] (48 h). Also, the “effect on intracellular ATP” value in the series with K562/DOX cells [6] was “significant inhibitory capacity”. In series [4] (4 mg/kg βE, n = 6, read-out: AUC0–24 of βE), the AUC(0-t) turned out to be 4860 ± 1760 ng·h/mL. Moreover, the Cmax in series [4] (4 mg/kg βE, n = 6, read-out: Cmax of βE) was 6680 ± 1210 ng/mL. Besides, the half-life in series [4] (4 mg/kg βE, n = 6, read-out: T1/2 of βE (converted)) was 2.9 ± 0.45 h. Besides, the “time post injection after which no drug was observed in plasma” value in series [4] was 12 h.
